Measured values as given in patent publication US9278086B2, “Combination therapy and uses thereof for treatment and prevention of parasitic infection and disease” (The Royal Institution for the Advancement of …, priority 2010, dated 2016).

Test system: Plasmodium chabaudi
Test: Progression of P. chabaudi infection (10^6 pRBC i.v.) in pantetheinase-sufficient B6 mice
Assay type: in vivo
Conditions: Cys 60 mg/kg added to Art
Procedure: A/J and C57BL/6 (B6) mice were purchased from the Jackson Laboratories (Bar Harbor, Me.) and were housed at McGill University according to the guidelines of the Canadian Council on Animal Care. An LDH virus-free isolate of P. chabaudi AS was maintained by weekly passage in A/J mice. Mice were infected intravenously into the tail vein (i.v.) with 10^6 or 10^7 pRBC suspended in pyrogen-free saline. Following infection, the percentage of pRBC was determined daily on thin blood smears stained with Dif-Quik™ (Dade Behring, Newark, Del.), as described (Fortin A, et al. (2001) Proc Natl Acad Sci USA 98: 10793-10798).
Cysteamine hydrochloride (Sigma, Burlington ON) was prepared in PBS. Chloroquine hydrochloride, artesunate and dihydroartemisinin were provided by Dafra Pharmaceuticals; chloroquine was prepared in PBS, artesunate and DHA were prepared in 5% sodium bicarbonate and diluted in water to appropriate concentrations. All solutions were prepared fresh daily, filter sterilized and injections were performed intra-peritoneally (i.p) or subcutaneously (s.c.) for 4 days or according to treatment regimen. Mice were weighed prior to treatment to determine appropriate doses and injection volumes ranged from 100-400 μL per mouse. In the case of animals treated with two drugs, artemisinin derivatives were administered first (due to the short half life of cysteamine), followed by cysteamine 5-10 minutes later on alternate sides. Untreated control animals were injected with PBS alone.
To investigate whether the effects on parasite burden over the course of infection would also be observed with a pantetheinase-sufficient mouse strain, a similar experiment was performed using female B6 mice. Groups of mice were infected with 10^6 P. chabaudi pRBC i.v. and treated with PBS, 1 mg/kg or 30 mg/kg of Art, or 1 mg/kg or 30 mg/kg of Art plus 60 mg/kg of Cys for 4 days. […] As in A/J mice, the effect of Cys addition to 1 mg/kg of Art has a clear effect on early parasite replication at day 6 (FIG. 6B). […] B6 mice were able to completely clear parasite burdens and survive the infection, even in the control PBS-treated group.

For `NCCS` [Cysteamine], the “recrudescent parasitemia around day 14” value was “eliminated the appearance of recrudescent parasitemia”.
